Tests used:
Staphylococcus aureus [1] = experiment: Antibacterial activity against Staphylococcus aureus at 100 ug/ml after 24 hrs agar diffusion method; type: functional; conditions: read-out: DIZ
Proteus mirabilis [2] = experiment: Antibacterial activity against Proteus mirabilis at 75 ug/ml after 24 hrs agar diffusion method; type: functional; conditions: read-out: DIZ
Staphylococcus aureus [3] = experiment: Antibacterial activity against Staphylococcus aureus at 25 ug/ml after 24 hrs agar diffusion method; type: functional; conditions: read-out: DIZ
Staphylococcus aureus [4] = experiment: Antibacterial activity against Staphylococcus aureus at 75 ug/ml after 24 hrs agar diffusion method; type: functional; conditions: read-out: DIZ
Salmonella typhi [5] = experiment: Antibacterial activity against Salmonella typhi at 50 ug/ml after 24 hrs agar diffusion method; type: functional, Salmonella enterica subsp. enterica serovar Typhi; conditions: Salmonella enterica, read-out: DIZ
Salmonella typhi [6] = experiment: Antibacterial activity against Salmonella typhi at 100 ug/ml after 24 hrs agar diffusion method; type: functional, Salmonella enterica subsp. enterica serovar Typhi; conditions: Salmonella enterica, read-out: DIZ
Proteus mirabilis [7] = experiment: Antibacterial activity against Proteus mirabilis at 50 ug/ml after 24 hrs agar diffusion method; type: functional; conditions: read-out: DIZ
Proteus mirabilis [8] = experiment: Antibacterial activity against Proteus mirabilis at 100 ug/ml after 24 hrs agar diffusion method; type: functional; conditions: read-out: DIZ
Proteus vulgaris [9] = experiment: Antibacterial activity against Proteus vulgaris at 75 ug/ml after 24 hrs agar diffusion method; type: functional; conditions: read-out: DIZ
Staphylococcus aureus [10] = experiment: Antibacterial activity against Staphylococcus aureus at 50 ug/ml after 24 hrs agar diffusion method; type: functional; conditions: read-out: DIZ
Proteus mirabilis [11] = experiment: Antibacterial activity against Proteus mirabilis at 25 ug/ml after 24 hrs agar diffusion method; type: functional; conditions: read-out: DIZ
Proteus vulgaris [12] = experiment: Antibacterial activity against Proteus vulgaris at 25 ug/ml after 24 hrs agar diffusion method; type: functional; conditions: read-out: DIZ
Proteus vulgaris [13] = experiment: Antibacterial activity against Proteus vulgaris at 100 ug/ml after 24 hrs agar diffusion method; type: functional; conditions: read-out: DIZ
Salmonella typhi [14] = experiment: Antibacterial activity against Salmonella typhi at 75 ug/ml after 24 hrs agar diffusion method; type: functional, Salmonella enterica subsp. enterica serovar Typhi; conditions: Salmonella enterica, read-out: DIZ
Salmonella typhi [15] = experiment: Antibacterial activity against Salmonella typhi at 25 ug/ml after 24 hrs agar diffusion method; type: functional, Salmonella enterica subsp. enterica serovar Typhi; conditions: Salmonella enterica, read-out: DIZ
Proteus vulgaris [16] = experiment: Antibacterial activity against Proteus vulgaris at 50 ug/ml after 24 hrs agar diffusion method; type: functional; conditions: read-out: DIZ

Structure (SMILES)	zone of inhibition at 100 µg/mL (Staphylococcus aureus [1]) [mm]	zone of inhibition at 75 µg/mL (Proteus mirabilis [2]) [mm]	zone of inhibition at 25 µg/mL (Staphylococcus aureus [3]) [mm]	zone of inhibition at 75 µg/mL (Staphylococcus aureus [4]) [mm]	zone of inhibition at 50 µg/mL (Salmonella typhi [5]) [mm]	zone of inhibition at 100 µg/mL (Salmonella typhi [6]) [mm]	zone of inhibition at 50 µg/mL (Proteus mirabilis [7]) [mm]	zone of inhibition at 100 µg/mL (Proteus mirabilis [8]) [mm]	zone of inhibition at 75 µg/mL (Proteus vulgaris [9]) [mm]	zone of inhibition at 50 µg/mL (Staphylococcus aureus [10]) [mm]	zone of inhibition at 25 µg/mL (Proteus mirabilis [11]) [mm]	zone of inhibition at 25 µg/mL (Proteus vulgaris [12]) [mm]	zone of inhibition at 100 µg/mL (Proteus vulgaris [13]) [mm]	zone of inhibition at 75 µg/mL (Salmonella typhi [14]) [mm]	zone of inhibition at 25 µg/mL (Salmonella typhi [15]) [mm]	zone of inhibition at 50 µg/mL (Proteus vulgaris [16]) [mm]
CCOC(=O)[C@@H]1[C@@H]([C@H]2[C@@H](Oc3ccccc3)C(=O)N2c2ccc(OC)cc2)C2CCCN2C12C(=O)c1ccccc1C2=O (stereo partly drawn)	24	18	9	18	15	23	15	22	23	14	8	9	26	17	11	18
CCOC(=O)[C@@H]1[C@@H]([C@H]2[C@@H](Oc3ccccc3)C(=O)N2c2ccc(OC)cc2)C2CCCN2[C@@]12C(=O)c1cccc3cccc2c13 (stereo partly drawn)	18	16		14			13	20	16	11	10	9	20			11
CCOC(=O)[C@@H]1[C@@H]([C@H]2[C@@H](c3ccccc3)C(=O)N2c2ccc(OC)cc2)CN(C)[C@]12C(=O)Nc1ccccc12	27	18	14	23	15	29	14	21	16	18	11	11	20	21	12	14
CCOC(=O)[C@@H]1[C@@H]([C@H]2[C@@H](Oc3ccccc3)C(=O)N2c2ccc(OC)cc2)CN(C)C12C(=O)c1ccccc1C2=O	18	16	11	16	11	19	13	18	20	13	9	12	23	13	9	16
CCOC(=O)[C@@H]1[C@@H]([C@H]2[C@@H](c3ccccc3)C(=O)N2c2ccc(OC)cc2)C2CCCN2C12C(=O)c1ccccc1C2=O (stereo partly drawn)	28	16	9	16	12	20	15	23	20	13	10	12	24	14	9	17
CCOC(=O)[C@@H]1[C@@H]([C@H]2[C@@H](c3ccccc3)C(=O)N2c2ccc(OC)cc2)C2CCCN2[C@@]12C(=O)c1cccc3cccc2c13 (stereo partly drawn)	21	14	9	19			11	18	17	14	9		20			12
CCOC(=O)[C@@H]1[C@@H]([C@H]2[C@@H](c3ccccc3)C(=O)N2c2ccc(OC)cc2)CN(C)[C@@]12C(=O)c1cccc3cccc2c13	21	13		15	11	18	9	18	15	10			21	13		10

— ChEMBL document CHEMBL1667751, “Synthesis and antimicrobial activity of highly functionalised novel β-lactam grafted spiropyrrolidines and pyrrolizidines” (2011)
